The values below are quoted from earlier work in paper PMC10055906 (Chemical Science, 2023).

This series has as its target FGF2 (Homo sapiens, UniProt P09038). Conditions: read-out: KD (FGF2 affinity).

FGF2, sequence (P09038 134-288): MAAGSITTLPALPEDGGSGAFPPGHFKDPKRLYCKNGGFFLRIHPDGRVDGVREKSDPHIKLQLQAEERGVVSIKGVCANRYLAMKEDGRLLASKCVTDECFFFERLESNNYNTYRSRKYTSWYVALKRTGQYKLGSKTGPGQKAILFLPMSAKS

Take IdoA-GlcNS(6S)-IdoA(2S)-GlcNS(6S): the Kd (as a rule, the concentration at which binding is half-saturated) is 1200 nM.
